Target: T1, DHPR (Escherichia coli, UniProt P04036)
T1 construct: made in house; host or cells: E. coli BL21 (DE3) Gold
Assay: binding of ligands to DHPR (dissociation constants)
Design: species or system E. coli
Excerpt: The resonance assignments for DHPR residues Thr80, Thr104 and Met17 were obtained as follows. Differential chemical shift perturbation was observed by comparing the spectra of MIT-DHPR bound to 2,6-pyridinedicarboxylate (PDC) and the spectra of MIT-DHPR bound to 4-Cl PDC. Distinct changes in chemical shift for only one of the methionine ^13C^ε/^1H^ε resonances was detected, which therefore identified the signals as being associated with M17 as shown in FIG. 1D. Both PDC and 4-Cl PDC bound to DHPR with micromolar dissociation constants, so that, at the concentrations used, the protein was saturated in both samples. Therefore, the resultant chemical shift differences originate solely from the small perturbation introduced by binding slightly different ligands. Similarly, resonance assignments were obtained for residues T104 and […] with differential chemical shifts comparing spectra obtained for complexes formed with NADH and 3-acetyl pyridine NADH.

T1 sequence (P04036 whole entry): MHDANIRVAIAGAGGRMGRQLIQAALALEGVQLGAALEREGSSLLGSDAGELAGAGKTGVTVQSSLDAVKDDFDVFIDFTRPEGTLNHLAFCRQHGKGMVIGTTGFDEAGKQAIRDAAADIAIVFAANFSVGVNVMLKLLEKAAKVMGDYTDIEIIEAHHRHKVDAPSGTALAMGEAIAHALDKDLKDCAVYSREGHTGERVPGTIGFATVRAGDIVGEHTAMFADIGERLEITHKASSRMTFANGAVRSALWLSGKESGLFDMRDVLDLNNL

Compound: O=C(O)c1cc(Cl)cc(C(=O)O)n1 [4-Cl PDC]
- dissociation constants: micromolar

Compound: O=C(O)c1cccc(C(=O)O)n1 [PDC, 2,6-pyridinedicarboxylate]
- dissociation constants: micromolar

Reference: patent publication US20050234652A1, “Nuclear magnetic resonance-docking of compounds” (Triad Therapeutics, Inc., priority 2001, published 2005)
